Measured values taken from patent US12721875B2, “Drug for treatment of breast cancer with antler and ginseng as sovereign drug and preparation method and application thereof” (Jilin University, priority 2024, dated 2026).

What was measured:
4T1 breast cancer cells = assay: 4T1 triple-negative mice breast cancer model, second batch, DTX with or without medium dose preparation, 31 days; type: in vivo, BALB/c mice
Description: after the required amount of 4T1 breast cancer cells were cultured, the cells were resuspended in phosphate-buffered saline (PBS) after trypsin digestion and centrifugation, and the cells were counted and diluted to a cell concentration of 1×10^7 cells/mL. All mice were intraperitoneally injected with 50 mg/kg pentobarbital sodium and 0.5% lidocaine solution for infiltration anesthesia, under anesthesia, 0.1 mL cell suspension of each mouse was inoculated in the third pair of mammary fat pads on the left side, the cotton swab was pressed for a moment to avoid cell outflow after inoculation. During the inoculation process, the pipette blows the cell suspension to ensure uniform suspension.
experimental BALB/c mice were divided into 3 groups with 10 mice in each group. They were the PBS group, chemotherapy […] (DTX) group, and DTX+medium dose (0.85 mg/kg) group.
The mice were administered by gavage on the second day after tumor implantation, the DTX group was intraperitoneally injected with 0.2 mL of DTX, once a week. The DTX+medium dose group was intraperitoneally injected with DTX at the first and fourth weeks of inoculation and combined with the medium dose of Antler-Ginseng compound preparation. The tumor volume (L×W2×0.4) and body weight of mice were measured on the 7th day after inoculation. For a total of 31 days. Flow cytometry analysis: three mice in each group of PBS group and DTX+medium dose group were selected randomly for flow cytometry analysis of tumor tissue and spleen. All statistical analyses were performed by using GraphPad Prism 9.0, P<0.05 was considered statistically significant.
6. The Antler-Ginseng compound preparation reduces the course of chemotherapy and the frequency of medication, and the anti-tumor effect is better than the anti-tumor effect of single-agent chemotherapy. […]

breast cancer = assay: Clinical observation and typical clinical cases of breast cancer patients; type: in vivo, human; settings: clinical case 1, Abemaciclib and Fulvestrant for 3 days

Row | SMILES | body weight of the experimental animals (4T1 breast cancer cells; DTX once a week, combination with halved chemotherapy frequency plus medium dose preparation) | tumor volume compared with the PBS group (4T1 breast cancer cells; P<0.05) | tumor weight compared with the PBS group (4T1 breast cancer cells; P<0.05) | increase of transaminase (liver function) (breast cancer) [times]
1 | CC(=O)O[C@@]12CO[C@@H]1C[C@H](O)[C@@]1(C)C(=O)[C@H](O)C3=C(C)[C@@H](OC(=O)[C@H](O)[C@@H](NC(=O)OC(C)(C)C)c4ccccc4)C[C@@](O)([C@@H](OC(=O)c4ccccc4)[C@H]21)C3(C)C [DTX, docetaxel] | significantly reduced | significantly lower | significantly lower | –
2 | CCN1CCN(Cc2ccc(Nc3ncc(F)c(-c4cc(F)c5nc(C)n(C(C)C)c5c4)n3)nc2)CC1 [Abemaciclib] | – | – | – | 10
